The values that follow come from paper PMC5473904, “Epigenetic and antitumor effects of platinum(IV)-octanoato conjugates” (Scientific Reports, 2017).

As usually defined, the IC50 is the concentration needed to halve the response being measured. The term log P denotes the decadic logarithm of the partition coefficient of the neutral form, usually between octanol and water. The low end stands for a more hydrophilic compound, the high end for a more lipophilic compound.

Data set [1] has as its system A2780cisR human ovarian carcinoma cells. More on the design: method as in PMID 25888926. The settings on record: compared with Pt(IV)diOA value of Table 1; cited from earlier work.
Data set [2] has as its system A2780 human ovarian carcinoma cells. More on the design: method as in PMID 25888926. Particulars: compared with Pt(IV)diOA value of Table 1; cited from earlier work.
The test system of data set [3] is Lewis lung carcinoma (LLC). Put plainly: In vivo antitumor activity in Lewis lung carcinoma. The settings on record: LLC in C57BL mice; for Average tumor weight (mean ± SD): 20 mg kg^−1 daily orally day 7–14, day 15; for Inhibition of tumor growth: 20 mg kg^−1 daily orally day 7–14, day 15, referred to control animals. As to the method: Xenograft LLC tumors were grown in C57BL mice that were subsequently treated with […] of either Pt(IV) complex. Pt(IV) prodrugs were administered by oral gavage by taking advantage of their excellent stability, enabling in vivo oral formulation making platinum therapy safer lessening side effects and partially overcoming resistance to platinum(II) drugs, [35]. The schedule of Pt(IV) prodrug administration in vivo was initially determined by assessing the total dose that could be injected without undue toxicity in nontumor-bearing C57BL mice. From day 7 after tumor inoculation, when tumors became visible, tumor-bearing mice received daily doses of the Pt(IV) derivatives (20 mg kg^−1, by oral gavage).
The LLC cell line was purchased from ECACC, United Kingdom. The LLC cell line was maintained in DMEM (Euroclone) supplemented with 10% heat-inactivated fetal bovine serum (FBS; Euroclone), 10 mM L-glutamine, 100 U mL^−1 penicillin, and 100 μg mL^−1 streptomycin in a 5% CO2 air incubator at 37 °C. The LLC was implanted intramuscularly (im) as a 2 × 10^6 cell inoculum into the right hind leg of 8-week old male and female C57BL mice (24 ± 3 g body weight). […] At day 15, animals were sacrificed, the legs were amputated at the proximal end of the femur, and the inhibition of tumor growth was determined according to the difference in weight of the tumor-bearing leg, and the healthy leg of the animals expressed as a percentage referred to the control animals. Body weight was measured every two days and was taken as a parameter for systemic toxicity. All the values are the means ± SD of not less than three measurements.

Data set [4] relates to MCF-7 human breast cancer cells. On the set-up: method as in PMID 25888926. Particulars: compared with Pt(IV)diOA value of Table 1; cited from earlier work.
For data set [5], the system named is DNA methylation in HCT-116 cells. The data set is described as follows: DNA methylation analysis (Imprint methylated DNA quantification kit). Type of data set: cell-based, human. The settings on record: HCT-116, 30 µM, 72 h. As to the method:
Human colon adenocarcinoma cells HCT-116 were chosen as the model cellular system suitable for DNA methylation analysis because: (i) this human colorectal cancer cell line has been used as a prototypic model for analyses of the genetic basis of cancer, and the role of epigenetic changes in tumorigenesis; (ii) they have a propensity to both global DNA hypomethylation and to silence genes through promoter focal hypermethylation, [21]. HCT-116 cells were treated with the compounds at the concentrations indicated in Fig. 4A for 24 or 72 h and DNA was isolated for the complete methylation analysis as described in the experimental section. Decitabine (5-aza-2′-deoxycytidine), a hypomethylating agent which hypomethylates DNA by inhibiting DNMT, was used in these experiments as a […]. The IC50 values found for this agent in HCT-116 cells (the drug-treatment period was 72 h) was (7.5 ± 0.3) µM (Table 1).
Figure 4 Analysis of DNA methylation. (A) DNA was isolated from HCT-116 cells after the exposure to the agents at the concentrations indicated in the graph for 24 or 72 h. The levels of DNA methylation in the control was taken as 100%. The bars represent mean values from three independent experiments each performed in octuplicate. The error bars are the SDs. (B) DNMT activity in colon carcinoma cells HCT-116 treated for 24 h with the compounds tested in the present work. The DNMT activity in the control, untreated cells was taken as 100%. Error bars are the SDs and the stars at the top of bars denote a significant difference from the control with (*p < 0.05; **p < […]), calculated using […] student’s t-test. The bars represent mean values from three independent experiments, each performed in quadruplicate.
Human colon carcinoma cells (HCT-116) were seeded at the density 1.5 × 10^6 cells/dish. […] The DNA content in each sample was determined by UV spectrophotometry. DNA (200 ng) from the samples was loaded to the Imprint methylated DNA quantification kit (Sigma-Aldrich, USA). The level of methylated DNA was proportional to the absorbance measured at 450 nm.

The subject of data set [6] is HDAC enzymes in HCT-116 cells. Put plainly: HDAC fluorimetric cellular activity assay. Format: cell-based, human. The settings on record: 1 µM. The protocol: These epigenetic processes consist in downregulation of HDACs and yet other biochemical processes triggered by VPA released in cells by the reduction of the Pt(IV) prodrug. Moreover, it has also been shown[15] that non-branched MCFAs may act as HDAC inhibitors. […] HDAC activity was analyzed in HCT-116 cells and confirmed by an independent set of experiments on A2780 cells (data not shown) by using a commercial HDAC fluorimetric cellular activity kit as described in the section Materials and methods.
Figure 3 Activity of HDAC enzymes in HCT-116 cells treated with the compounds tested in the present work; their concentration was 1 µM except the concentration of free OA, which was 1 mM. […] The data represent a mean from three independent experiments, each performed in quadruplicate. The error bars are the SDs.
The activity of HDAC enzymes was analyzed in HCT-116 cells treated with compounds tested in the present work (1 µM). […] The activity of HDAC was analyzed using the HDAC fluorimetric cellular activity assay kit (Enzo Life Sciences; Farmingdale, NY) in the whole cells according to manufacturer’s instructions. […] The plates were scanned on a fluorescence reader Infinite 200 (TECAN) (360 nm excitation, 460 nm emission).

The nature of data set [7]: log P (octanol/water) by shake flask method. Type of data set: physicochemical. Particulars: 0.2 M aqueous NaCl.
Experimental: To quantify the hydrophobicity of the platinum complexes, the shake-flask method was used to measure partition coefficients (log P) values for octanol/water.
To determine the partition coefficient (P) the shake flask method was used. Octanol-saturated water (OSW) and water-saturated octanol (WSO) were prepared using analytical grade octanol and 0.2 M aqueous NaCl solution (to suppress hydrolysis of the chlorido complexes). […] Mixing was done by vortexing for 30 min at room temperature to establish the partition equilibrium. To separate the phases, centrifugation was done at 3000 g for 5 min. The aqueous layer was carefully separated from the octanol layer for platinum analysis. Platinum was quantified from aliquots taken from the octanol-saturated aqueous samples before and after partition by ICP-MS.

Turning to `CCCC(CCC)C(=O)[O][Pt]([NH2])([NH2])([Cl])([Cl])[O]C(=O)C(CCC)CCC` [Pt(IV)diVPA, cis, cis, trans-[Pt(IV)(NH3)2Cl2(VPA)2]], the IC50 in data set [1] was 300 ± 100 nM; in data set [2] it was 250 ± 90 nM; in data set [4] it was 900 ± 300 nM. In addition, in data set [3], the “Average tumor weight (mean ± SD)” value is given as 0.174 ± 0.08 g. For the same molecule, in data set [3], the “Inhibition of tumor growth” value stood at 68%.

On to `CCCCCCCC(=O)[O][Pt]([NH2])([NH2])([Cl])([Cl])[O]C(=O)CCCCCCC` [Pt(IV)diOA, cis, cis, trans-[Pt(IV)(NH3)2Cl2(OA)2]], for which, in data set [3], the “Average tumor weight (mean ± SD)” value stood at 0.025 ± 0.03 g and the “Inhibition of tumor growth” value is listed as 95%.

On to `N.N.[Cl][Pt][Cl]` [cisplatin, reference compound], for which, in data set [5], the “Change of DNA methylation” value is on record as “non-significant change”.

Consider `CC(=O)[O][Pt]([NH2])([NH2])([Cl])([Cl])[O]C(C)=O` [Pt(IV)diAc, cis, cis, trans-[Pt(IV)(NH3)2Cl2(Ac)2]], for which, in data set [6], the “Efficiency to inhibit HDAC activity” value was “very small”. In data set [7], the “log P” value is recorded as −1.85 ± 0.09.
